Columns and labels:
[1] = tested on: oral squamous carcinoma cell lines; conditions: cited from earlier work
[2] = tested on: p70-S6K1-pT389 (mTORC1 substrate); assay: Immunoblot of mTORC1 substrate p70-S6K1-pT389 after insulin/aa induction; assay type: cell-based; conditions: astrin knockdown, insulin and aa 10 minutes; Rapamycin 100 nM, PP242 250 nM
Experimental: Experiments were performed in HeLa α Kyoto cells, and BT474, MDA-MB-231, MDA-MB-453, T-47D, MCF-7 breast cancer cell lines. […] Cultivation of breast cancer cell lines T-47D, BT474, MDA-MB-231 and MDA-MB-453 was done in the following media: RPMI (PAA, Pasching, Austria) supplemented with 100 nM insulin. MCF7 cells were cultivated in RPMI (PAA, Pasching, Austria). Insulin/aa induction was done as described (Sonntag et al., 2012). Prior to stress induction with 500 μM Arsenite or 2 mM H2O2, cells were starved for 16 h in DMEM without Glucose and fetal calf serum (PAA, Pasching, Austria) supplemented with 1.5% L-glutamine.
Stress granules were analysed after 30 min. stress induction. Apoptosis was analysed after 1-3 hours stress induction. Inhibitors were obtained from Calbiochem, Merck KGaA, Darmstadt, Germany and Sigma Aldrich, St. Louis, USA; dissolved in DMSO, and applied 30 min. prior to all induction regimens, at the following concentrations: Rapamycin (100 nM), PP242 (250 nM), Wortmannin (200 nM), Cycloheximide (2 μg/mL); HeLa cells were synchronized with Nocodazole (400 ng/mL) and subsequent mitotic shake off at G2/M, and released as described (Thein, K. H., Kleylein-Sohn, J., Nigg, E. A., and Gruneberg, U. (2007). Astrin is required for the maintenance of sister chromatid cohesion and centrosome integrity. J Cell Biol 178, 345-354). […]

SMILES | cytotoxicity [1] | p70-S6K1-pT389 in astrin deficient cells [2]
CCCCCCCC/C=C\CCCCCCCCCCCCOP(=O)([O-])OCC[N+](C)(C)C [Erufosine] | dose-dependent cytotoxicity in all cell lines | –
CC(C)n1nc(-c2cc3cc(O)ccc3[nH]2)c2c(N)ncnc21 [PP242] | – | potently inhibited
